According to PMC12799421, “Inhibition of constitutive activity of the atypical chemokine receptor 3 by the small-molecule inverse agonist VUF16840” (Molecular Pharmacology, 2025):
pIC50: −log10 of the molar value. Where two headings read alike, the source gives them in different places.

Tests used:
HA-hACKR3 = biological target: T1, HA-hACKR3 (Homo sapiens, UniProt P25106); test: [3H]VUF15485 radioligand binding assay; conditions: 2 nM [3H]VUF15485, HEK293T membranes; for pIC50: read-out: IC50, displacement of [3H]VUF15485 binding from HA-hACKR3
T1 construct: expressed in transfected cells; host or cells: HEK293T (membranes, transient expression)
Procedure: Membranes of HEK293T cells that transiently expressed the NLuc-hACKR3 or HA-hACKR3 were produced as previously described.[23] Briefly, 2 million HEK293T cells were seeded per […] and were transfected the following day using a DNA/PEI-mix containing 0.25 μg plasmid DNA encoding for the ACKR3, 4.75 μg pcDEF3 plasmid DNA and 30 μg linear PEI. Two days after transfection, cells were collected in PBS (137 mM NaCl, 2.57 mM KCl, 1.5 mM KH2PO4, 8 mM Na2HPO4) and pelleted by centrifugation. Cell pellets were resuspended in ice-cold membrane buffer (15 mM Tris, 0.3 mM EDTA, 2 mM MgCl2, pH 7.4 at 4 °C) and dounce-homogenized on ice by plunging the pestle 10 times with 1500 rpm. Cell homogenates were subsequently subjected to 2 freeze-thaw cycles using liquid nitrogen. Next, the cell homogenates were centrifuged at 40,000 g and pellets were resuspended in Tris-sucrose buffer (20 mM Tris, 250 mM sucrose, pH 7.4 at 4 °C). […]
Radioligand binding studies were performed as described earlier.[23] […] Filter-bound [^3H]VUF15485 was measured by adding 25 μL MicroScint-O per well to the dried GF/C-plate and radioactivity was quantified using the Wallac Microbeta counter (Perkin Elmer).
The sigmoidal concentration-dependent displacement of binding of the probes [^3H]VUF15485 and CXCL12-A647 by unlabeled ligands were analyzed using GraphPad Prism 8, by fitting a one-site binding model to the data, to determine the pIC50. Mean pIC50 values were determined by averaging fitted values from individual experiments. […] Similarly, sigmoidal, ligand-induced concentration-dependent activation or inhibition of the proximity between ACKR3 and the protein of interest was analyzed using GraphPad Prism 8, by fitting a 3-parameter concentration-response model to the data, to determine pEC50/pIC50 values. Mean pEC50 values and pIC50 values were determined by averaging fitted values from individual experiments. […]
The ACKR3 ligand VUF16840 was evaluated for its binding to hACKR3 in different competition binding assay formats (Fig. 1). […]

ACKR3 [1] = biological target: T2, ACKR3 (Homo sapiens, UniProt P25106); test: BRET GRK2 recruitment to ACKR3 in HEK293T cells; assay type: cell-based; conditions: for EC50: * VUF16840 as inverse agonist, read-out: GRK2 BRET pEC50 (converted)
T2 construct: expressed in transfected cells; host or cells: HEK293T
Procedure: For bioluminescence resonance energy transfer (BRET) experiments, several BRET acceptor constructs were used that consist of the pcDEF3 vector with either GRK2 (NCBI: NM_174710.2), β-arrestin1 (NCBI: NM_174243.3), or β-arrestin2 (NCBI: XM_005220181.4) fused at the C-terminus with a SpeI/NotI linker to mVenus (NCBI: KP666136.1), as previously described.[34]
(§1) For 1·10^6 HEK293T cells, a transfection mix consisting of 2 μg plasmid DNA, 12 μg linear PEI in a total volume of 200 μL 150 mM NaCl was made and thoroughly vortexed. The transfection mix was incubated for 15 minutes and consequently added to a cell suspension with a final concentration of 3·10^5 cells/mL. For functional studies this cell suspension was immediately transferred to a poly-L-lysine-coated white 96-well plate, with 3·10^4 cells per well. […] For BRET-based membrane localization experiments, the 2 μg plasmid DNA consisted of ACKR3-NL (0.05 μg), mVenus-CAAX (0.25 μg), and pcDEF3 vector DNA without insert (1.7 μg).
The sigmoidal concentration-dependent displacement of binding of the probes [^3H]VUF15485 and CXCL12-A647 by unlabeled ligands were analyzed using GraphPad Prism 8, by fitting a one-site binding model to the data, to determine the pIC50. Mean pIC50 values were determined by averaging fitted values from individual experiments. Graphs depict the pooled data of all experiments. Similarly, sigmoidal, ligand-induced concentration-dependent activation or inhibition of the proximity between ACKR3 and the protein of interest was analyzed using GraphPad Prism 8, by fitting a 3-parameter concentration-response model to the data, to determine pEC50/pIC50 values. Mean pEC50 values and pIC50 values were determined by averaging fitted values from individual experiments. […]
(§2) Fig. 5 Inhibition of both constitutive as well as agonist-induced ACKR3 activity by VUF16840. […] The resulting proximity between ACKR3 and β-arrestin1 (A, E), GRK2 (B, F), or Rab5a (C, G) was determined by bioluminescence resonance energy transfer. […]

ACKR3 [2] = biological target: T2, ACKR3; test: BRET ACKR3-Rab5a proximity (early endosome translocation) in HEK293T cells; assay type: cell-based; conditions: for EC50: * VUF16840 as inverse agonist, read-out: Rab5a BRET pEC50 (converted)
Procedure: as §1
The sigmoidal concentration-dependent displacement of binding of the probes [^3H]VUF15485 and CXCL12-A647 by unlabeled ligands were analyzed using GraphPad Prism 8, by fitting a one-site binding model to the data, to determine the pIC50. Mean pIC50 values were determined by averaging fitted values from individual experiments. Graphs depict the pooled data of all experiments. Similarly, sigmoidal, ligand-induced concentration-dependent activation or inhibition of the proximity between ACKR3 and the protein of interest was analyzed using GraphPad Prism 8, by fitting a 3-parameter concentration-response model to the data, to determine pEC50/pIC50 values. Mean pEC50 values and pIC50 values were determined by averaging fitted values from individual experiments. Graphs depict the pooled data of all experiments, for which values are normalized, per experiment, to the fold difference compared with basal signal.
as §2, with “transfer. Furthermore, an interaction between clathrin A and β-arrestin2 was measured by NLuc complementation, as was determined by quantifying the relative light units (D, H).” for “transfer.”

T2 sequence (P25106 whole entry): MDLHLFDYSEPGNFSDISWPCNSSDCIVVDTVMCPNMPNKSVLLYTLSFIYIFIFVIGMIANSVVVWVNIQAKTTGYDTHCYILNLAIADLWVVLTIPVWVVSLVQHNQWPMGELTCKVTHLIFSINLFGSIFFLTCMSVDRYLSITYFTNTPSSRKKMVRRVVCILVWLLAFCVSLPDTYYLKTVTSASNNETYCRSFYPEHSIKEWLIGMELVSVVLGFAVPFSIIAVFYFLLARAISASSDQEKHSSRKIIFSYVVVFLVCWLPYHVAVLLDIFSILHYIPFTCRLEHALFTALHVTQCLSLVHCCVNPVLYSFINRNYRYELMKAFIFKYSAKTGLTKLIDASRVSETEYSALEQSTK
T1 sequence (P25106 whole entry): as above

| pIC50 (HA-hACKR3) | EC50 (ACKR3 [1]) [nM] | EC50 (ACKR3 [2]) [nM] | IC50 (HA-hACKR3; mean ± SD, read-out: pIC50, displacement of [3H]VUF15485 binding from HA-hACKR3 (converted)) [nM] | IC50 (ACKR3 [1]; versus 100 nM VUF15485, read-out: GRK2 BRET, Inhibition by VUF16840 (pIC50) (converted)) [nM] | IC50 (ACKR3 [2]; versus 100 nM VUF15485, read-out: Rab5a BRET, Inhibition by VUF16840 (pIC50) (converted)) [nM] | Structure (SMILES) |
| --- | --- | --- | --- | --- | --- | --- |
| 7.70 | 25.1 | 7.94 |  |  |  | COc1cc(C(=O)N(CCC2CCCN2C)CC(C)=Cc2ccccc2F)cc(OC)c1OC (stereo not drawn) [VUF15485, reference compound] |
| 9.15 | 3.16 | 1.58 | 0.794 | 3.98 | 5.01 | COc1ccccc1CCNC(=O)C1CN(C2CCCCC2)CCC1NC(=O)c1cc(-c2ccc(F)cc2F)on1 (stereo not drawn) [VUF16840] |
